Assay results reported in PMC6268379, “Antifungal Activity of Homoaconitate and Homoisocitrate Analogs” (Molecules, 2012).
In brackets after ≈: the same amount, converted by molar mass. Read-outs that look alike come from different tables or passages of the source.

Legend:
[1] = tested on: Saccharomyces cerevisiae ATCC 9763; experiment: Antifungal in vitro activity, microplate serial dilution (modified CLSI M27-A3); assay type: cell-based
[2] = tested on: Candida albicans ATCC 10231; experiment: as above; assay type: cell-based
[3] = tested on: Candida glabrata DSM 11226; experiment: as above; assay type: cell-based; settings: Nakaseomyces glabratus
[4] = tested on: Candida tropicalis KKP 334; experiment: as above; assay type: cell-based
[5] = tested on: Candida lusitaniae DSM 70102; experiment: as above; assay type: cell-based; settings: Clavispora lusitaniae
Candida krusei DSM 6128 = experiment: as above; assay type: cell-based; settings: Pichia kudriavzevii
[6] = target: T1, recombinant homoaconitase (HA) (Candida albicans, UniProt Q5A644); experiment: Homoaconitase activity, coupled reaction with HIcDH, NADH at 340 nm; assay type: biochemical; settings: for effect on enzyme activity (homoaconitase): ester derivatives, concentrations up to 10 mM
T1 construct: made in house
T1 sequence (Q5A644 1-684): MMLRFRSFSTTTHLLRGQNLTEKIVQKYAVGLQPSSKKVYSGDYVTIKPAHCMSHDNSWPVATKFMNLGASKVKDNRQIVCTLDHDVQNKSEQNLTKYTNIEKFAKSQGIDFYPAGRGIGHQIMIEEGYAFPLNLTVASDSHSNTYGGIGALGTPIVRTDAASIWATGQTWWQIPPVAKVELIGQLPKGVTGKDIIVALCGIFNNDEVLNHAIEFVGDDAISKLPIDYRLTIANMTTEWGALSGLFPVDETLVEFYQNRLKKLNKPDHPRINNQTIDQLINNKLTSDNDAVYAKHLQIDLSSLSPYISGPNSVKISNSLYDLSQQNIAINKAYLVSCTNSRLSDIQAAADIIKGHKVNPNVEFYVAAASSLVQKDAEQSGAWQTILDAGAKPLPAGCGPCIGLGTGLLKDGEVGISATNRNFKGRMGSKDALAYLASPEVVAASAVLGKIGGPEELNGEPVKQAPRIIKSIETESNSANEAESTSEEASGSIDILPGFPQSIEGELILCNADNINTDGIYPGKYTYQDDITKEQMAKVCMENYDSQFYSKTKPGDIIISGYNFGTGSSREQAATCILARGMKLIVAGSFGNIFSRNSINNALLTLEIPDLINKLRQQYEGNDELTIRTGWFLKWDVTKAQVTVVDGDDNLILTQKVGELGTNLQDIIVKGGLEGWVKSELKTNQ
Method: (§1) Recombinant C. albicans homoaconitase (HA) and homoisocitrate dehydrogenase (HIcDH) containing oligoHis N-terminal tags were constructed and purified to near homogeneity as described earlier.
Activity of homoaconitase (HA) was measured by a coupled reaction with HIcDH by monitoring the reduction of NAD^+ to NADH at 340 nm. Reaction mixtures containing 50 mM Tris-HCl (pH 8.5), 50 mM KCl, 5 mM MgCl2, 20 mM dithiothreitol, 1 mM NAD^+ and 30 μg/mL of His6-HIcDH in a total volume of 0.9 mL were degassed under argon for 10 min, after which 0.05 mL of His6-HAC solution was added to a final concentration of 10 μg/mL. The reaction was initiated with addition of 0.05 mL of 50 mM (R)-homocitrate. The formation of NADH was measured for 30 s at 20 °C to determine initial reaction velocity. The initial rates were determined using a linear portion of the reaction progress curve.
(§2) The effects of novel compounds on the HA and HIcDH activity was determined by measuring the enzyme activity in standard assay mixtures containing various concentration of an inhibitor (0–10 mM). Inhibitory potential was expressed as IC50 values, i.e., concentrations causing 50% inhibition of enzyme activity in relation to control. All determinations were performed in triplicate.

[7] = target: recombinant homoisocitrate dehydrogenase (HIcDH) (Candida albicans, UniProt Q5A9D9); experiment: Homoisocitrate dehydrogenase activity, NADH absorption at 340 nm; assay type: biochemical; settings: for IC50: recombinant C. albicans His-tagged HIcDH, inhibitor 0–10 mM, mean of three determinations ± SD; for effect on enzyme activity (homoisocitrate dehydrogenase): ester derivatives, concentrations up to 10 mM
Method: as §1
Reaction catalyzed by homoisocitrate dehydrogenase (HIcDH) was monitored by measuring the NADH absorption at 340 nm. The standard assay mixture contained 10 mM KCl, 5.0 mM MgCl2, 5 mM NAD^+ and 0.1 mM (2R,3S)-homoisocitrate in 50 mM Hepes-NaOH (pH 7.8) buffer. The reaction mixture with all required components except for the enzyme was preincubated for 3 min and the reaction was started by an addition of the recombinant His6-HIcDH (50 μg). The formation of NADH was measured for 30 s at 20 °C to determine initial reaction velocity. The initial rates were determined using a linear portion of the reaction progress curve.
as §2

six yeast strains = experiment: In vitro antifungal activity against six yeast strains; assay type: cell-based; settings: for antifungal activity: salts, six yeast strains, stated in words; for MIC values, range over susceptible yeast strains: range stated in text over the tested yeast strains
[8] = ATCC9763, RPMI-1640 pH 7.0, 24 h at 37 °C, at least 80% decrease in turbidity, read-out: MIC S. cerevisiae
[9] = ATCC10231, RPMI-1640 pH 7.0, 24 h at 37 °C, at least 80% decrease in turbidity, read-out: MIC C. albicans
[10] = DSM11226, RPMI-1640 pH 7.0, 24 h at 37 °C, at least 80% decrease in turbidity, read-out: MIC C. glabrata
[11] = KKP334, RPMI-1640 pH 7.0, 24 h at 37 °C, at least 80% decrease in turbidity, read-out: MIC C. tropicalis
[12] = DSM70102, RPMI-1640 pH 7.0, 24 h at 37 °C, at least 80% decrease in turbidity, read-out: MIC C. lusitaniae
[13] = DSM6128, RPMI-1640 pH 7.0, 24 h at 37 °C, at least 80% decrease in turbidity, read-out: MIC C. krusei
[14] = ATCC9763, 24 h, pH 7, read-out: MIC S. cerevisiae
[15] = ATCC10231, 24 h, pH 7, read-out: MIC C. albicans
[16] = DSM11226, 24 h, pH 7, read-out: MIC C. glabrata
[17] = KKP334, 24 h, pH 7, read-out: MIC C. tropicalis
[18] = DSM70102, 24 h, pH 7, read-out: MIC C. lusitaniae
[19] = DSM6128, 24 h, pH 7, read-out: MIC C. krusei

recombinant homoisocitrate dehydrogenase (HIcDH), sequence (Q5A9D9 entry or part of it): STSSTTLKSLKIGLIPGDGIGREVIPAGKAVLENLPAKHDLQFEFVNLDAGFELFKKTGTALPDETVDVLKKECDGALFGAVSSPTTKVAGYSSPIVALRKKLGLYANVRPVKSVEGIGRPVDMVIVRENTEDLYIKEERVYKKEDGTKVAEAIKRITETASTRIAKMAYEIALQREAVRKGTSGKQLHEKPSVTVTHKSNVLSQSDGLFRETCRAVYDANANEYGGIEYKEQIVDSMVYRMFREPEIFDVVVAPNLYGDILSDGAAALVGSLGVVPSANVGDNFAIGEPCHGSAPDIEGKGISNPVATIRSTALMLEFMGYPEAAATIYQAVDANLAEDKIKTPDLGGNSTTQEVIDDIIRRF

Row | MIC [1, 8] [µg/mL] | MIC [2, 9] [µg/mL] | MIC [3, 10] [µg/mL] | MIC [4, 11] [µg/mL] | MIC [5, 12] [µg/mL] | MIC (Candida krusei DSM 6128; [13]) [µg/mL] | Structure (SMILES) | IC50 [6] [mM] | IC50 [7] [mM] | antifungal activity (six yeast strains) | effect on enzyme activity (homoaconitase) [6] | effect on enzyme activity (homoisocitrate dehydrogenase) [7] | MIC [1, 14] [µg/mL] | MIC [2, 15] [µg/mL] | MIC [3, 16] [µg/mL] | MIC [4, 17] [µg/mL] | MIC [5, 18] [µg/mL] | MIC (Candida krusei DSM 6128; [19]) [µg/mL] | Km ([7]; recombinant C. albicans HIcDH, read-out: KM of recombinant HIcDH for cofactor) [µM] | MIC values, range over susceptible yeast strains (six yeast strains) [µg/mL]
1 | > 512 | 256 (≈ 1160 µM) | 512 (≈ 2320 µM) | 128 (≈ 581 µM) | 128 (≈ 581 µM) | > 512 | CCCC[C@@H](C(=O)OC)[C@@H](F)C(=O)OC [Compound 6b, Dimethyl (2R,3S)-2-fluoro-3-butylsuccinate] |  |  |  |  |  |  |  |  |  |  |  |  | 
2 | > 512 | 256 (≈ 1250 µM) | 256 (≈ 1250 µM) | 256 (≈ 1250 µM) | > 512 | 512 (≈ 2510 µM) | C=CC[C@@H](C(=O)OC)[C@@H](F)C(=O)OC [Compound 6c, Dimethyl (2R,3S)-2-fluoro-3-allylsuccinate] |  |  |  |  |  |  |  |  |  |  |  |  | 
3 | > 512 | > 512 | > 512 | > 512 | > 512 | > 512 | C=CC[C@@H](C(=O)OC)[C@H](O)C(=O)OC [Compound 5c, Dimethyl (2S,3R)-2-hydroxy-3-allylsuccinate] |  |  |  |  |  |  |  |  |  |  |  |  | 
4 | > 512 | > 512 | > 512 | > 512 | > 512 | > 512 | CCC[C@@H](C(=O)OC)[C@H](O)C(=O)OC [Compound 5a, Dimethyl (2S,3R)-2-hydroxy-3-propylsuccinate] |  |  |  |  |  |  |  |  |  |  |  |  | 
5 | > 512 | > 512 | > 512 | > 512 | > 512 | > 512 | CCCC[C@@H](C(=O)OC)[C@H](O)C(=O)OC [Compound 5b, Dimethyl (2S,3R)-2-hydroxy-3-butylsuccinate] |  |  |  |  |  |  |  |  |  |  |  |  | 
6 | > 512 | > 512 | > 512 | > 512 | 512 (≈ 2480 µM) | > 512 | CCC[C@@H](C(=O)OC)[C@@H](F)C(=O)OC [Compound 6a, Dimethyl (2R,3S)-2-fluoro-3-propylsuccinate] |  |  |  |  |  |  |  |  |  |  |  |  | 

Further lines, the compound ahead of its results:

Row | Structure (SMILES) | MIC [1, 8] [µg/mL] | MIC [2, 9] [µg/mL] | MIC [3, 10] [µg/mL] | MIC [4, 11] [µg/mL] | MIC [5, 12] [µg/mL] | MIC (Candida krusei DSM 6128; [13]) [µg/mL] | IC50 [6] [mM] | IC50 [7] [mM] | antifungal activity (six yeast strains) | effect on enzyme activity (homoaconitase) [6] | effect on enzyme activity (homoisocitrate dehydrogenase) [7] | MIC [1, 14] [µg/mL] | MIC [2, 15] [µg/mL] | MIC [3, 16] [µg/mL] | MIC [4, 17] [µg/mL] | MIC [5, 18] [µg/mL] | MIC (Candida krusei DSM 6128; [19]) [µg/mL] | Km ([7]; recombinant C. albicans HIcDH, read-out: KM of recombinant HIcDH for cofactor) [µM] | MIC values, range over susceptible yeast strains (six yeast strains) [µg/mL]
7 | O=C(O)CCC1(C(=O)O)OC1C(=O)O (stereo not drawn) [Compound 4, Tripotassium (1E)1,2-epoxy-butane-1,2,4-tricarboxylate] | > 512 | > 512 | > 512 | > 512 | > 512 | > 512 | 5.76 ± 0.34 | > 10 | None |  |  |  |  |  |  |  |  |  | 
8 | COC(=O)CC[C@@H](C(=O)OC)[C@@H](F)C(=O)OC [Compound 9, trimethyl (1R,2S)-1-fluorobutane-1,2,4-tricarboxylate] | > 512 | 128 (≈ 512 µM) | 256 (≈ 1020 µM) | 64 (≈ 256 µM) | > 512 | 256 (≈ 1020 µM) |  |  |  | none | none |  |  |  |  |  |  |  | 
9 | C=CC[C@@H](C(=O)[O-])[C@@H](F)C(=O)[O-].[K+].[K+] [Compound 7c, Dipotassium (2R,3S)-2-fluoro-3-allylsuccinate] |  |  |  |  |  |  | > 10 | 6.78 ± 0.56 | None |  |  | > 512 | > 512 | > 512 | > 512 | 512 | > 512 |  | 
10 | NC(=O)c1ccc[n+]([C@@H]2O[C@H](COP(=O)([O-])OP(=O)(O)OC[C@H]3O[C@@H](n4cnc5c(N)ncnc54)[C@H](O)[C@@H]3O)[C@@H](O)[C@H]2O)c1 [NAD^+, reference compound] |  |  |  |  |  |  |  |  |  |  |  |  |  |  |  |  |  | 1100 | 
11 | OC(Cn1cncn1)(Cn1cncn1)c1ccc(F)cc1F [Flu, Fluconazole, reference compound] | 4 (≈ 13.1 µM) | 4 (≈ 13.1 µM) | 8 (≈ 26.1 µM) | 2 (≈ 6.53 µM) | 4 (≈ 13.1 µM) | 8 (≈ 26.1 µM) |  |  |  |  |  |  |  |  |  |  |  |  | 
12 | O=C([O-])CC[C@@H](C(=O)[O-])[C@@H](F)C(=O)[O-].[K+].[K+].[K+] [Compound 10, tripotassium (1R,2S)-1-fluorobutane-1,2,4-tricarboxylate] |  |  |  |  |  |  | > 10 | 3.22 ± 0.55 | None |  |  | > 512 | > 512 | > 512 | > 512 | > 512 | > 512 |  | 
13 | COC(=O)/C=C(\CCC(=O)OC)C(=O)OC [Compound 1a, trimethyl (1E)-but-1-ene-1,2,4-tricarboxylate] | 32 (≈ 139 µM) | 16 (≈ 69.5 µM) | 16 (≈ 69.5 µM) | 32 (≈ 139 µM) | 16 (≈ 69.5 µM) | 32 (≈ 139 µM) |  |  |  | none | none |  |  |  |  |  |  |  | 16 to 32
14 | COC(=O)CCC1(C(=O)OC)OC1C(=O)OC (stereo not drawn) [Compound 3, Trimethyl (1E)1,2-epoxy-butane-1,2,4-tricarboxylate] | > 512 | 256 (≈ 1040 µM) | 128 (≈ 520 µM) | 128 (≈ 520 µM) | 512 (≈ 2080 µM) | > 512 |  |  |  | none | none |  |  |  |  |  |  |  | 128 to 512
